According to patent US8853277B2, “Nitroxide therapy for the treatment of von Hippel—Lindau disease (VHL) and renal clear cell carcinoma (RCC)” (The United States of America, as represented by the …, priority 2009, dated 2014):

Columns and labels:
[1] = system: HIF-2α; experiment: Western blot of HIF-2α in nuclear proteins of 786-0 RCC cells; assay type: cell-based, human; conditions: 786-0 cells, 5 mM, two to four hours, compared to Tempol-H or growth medium (control)
Description: The human sporadic RCC cell line 786-0 was obtained from the American Tissue Culture Collection (ATCC) (Manassas, Va.). This cell line contains a single inactivated VHL allele, produces no VHL protein, is deficient for HIF-la expression, and constitutively expresses HIF-2α. Gnarra et al., Nat. Genet., 7: 85-90 (1994) and Maxwell et al., Nature, 399: 271-275 (1999). Cultures of 786-0 cells were pre-incubated for one hour in KREB's buffer (115 mM NaCl, 5.9 mM KCl, 1.2 mM MgCl2, 1.2 mM NaH2PO4, 1.2 mM Na2SO4, 2.5 mM CaCl2, and 25 mM NaHCO3) at pH 7.4 and with 4.5 g/L of glucose. Cells were then treated for two to four hours with (i) Tempol (5 mM) obtained from Sigma Aldrich (St. Louis, Mo.), (ii) its non-functional hydroxylamine (protonated, reduced) variant: 1,4-dihydroxy-2,2,6,6-tetramethylpiperidine (Tempol-H) (5 mM) (Sigma Aldrich), or (iii) growth medium as a negative control. Cells were harvested, nuclear protein extractions performed, and protein concentrations were measured by BCA assay from Pierce (Rockford, Ill.). Aliquots of extracted nuclear proteins (20 μg) were loaded in a 7.5% polyacrylamide gel and separated by sodium dodecyl sulfate polyacrylamide gel electrophoresis (SDS-PAGE). Proteins were transferred to PVDF membranes, which were then blocked for one to sixteen hours in a solution of 5% dry milk. […]

[2] = system: HIF2 α; experiment: HIF-2α levels in eight other cell lines from patients with VHL mutations; assay type: cell-based, human; conditions: Tempol treatment
[3] = system: 786-0 (VHL−/−) cells; experiment: 786-0 (VHL−/−) subcutaneous tumor growth in SCID/BEIGE mice, Tempol in drinking water; assay type: in vivo; conditions: 2 mM in drinking water
Description: The tumor inhibitory effect of stable nitroxides were studied in vivo using mice with mutations in the Prkdc gene (SCID, which is associated severe combined immunodeficiency), and bg (BEIGE) gene. Twenty female SCID/BEIGE mice (C.B-Igh-1b/GbmsTac-Prkdc^scid-Lyst^bg N7 (CBSCBG) from Taconic (Hudson, N.Y.)) were injected with about 8 million 786-0 (VHL−/−) cells subcutaneously on the right flank. Starting on the day of injection, Tempol was diluted in PBS and added twice a week to the water bottle feeding a group of ten injected mice. The final concentration of Tempol in water was 2 mM. The control group of ten remaining mice received an equivalent amount of PBS in water twice a week. The volume of the tumors and weight of the mice were recorded once a week for up to 100 days. When the control group tumor volume reached 1 cm^3, tumors of 8 mice maintained as controls were harvested. At the same time, 4 of the animals maintained on Tempol were harvested and fast-frozen or paraffin embedded for further experiments. The average tumor volume as a function of time for each group is depicted in FIG. 2.

[4] = system: 786-0 cells (VHL−/−); experiment: 786-0 (VHL−/−) subcutaneous tumor growth in SCID/BEIGE mice, Tempol in chow; assay type: in vivo; conditions: 10 mg/g of food, after ten weeks, compared to control mice fed normal chow (P<0.05)
Description: Twenty female SCID/BEIGE mice were injected with 786-0 cells (VHL−/−) subcutaneously on the right flank, as described in Example 2. Starting on the day of injection, a control group of ten injected mice were fed standard chow (NIH-031, Zeigler Brothers, Inc. (Gardners, Pa.)) and a group ten injected mice received chow supplemented with Tempol. The Tempol diet supplement was made by a cold press technique from powdered Tempol uniformly mixed with bacon-flavored mouse chow (Bio-Serv Inc. (Frenchtown, N.J.)) providing a Tempol concentration of 10 mg/g of food. Bacon-flavored chow without Tempol was also added to the control diet. The volume of the tumors and the weight of the mice were recorded once a week for more than ten weeks. Tumor volumes as a function of time are depicted in FIG. 3. When the tumor volumes of the control group reached 1 cm^3, the tumors of all mice were harvested and fast-frozen or paraffin embedded for further experiments.

CC1(C)CC(O)CC(C)(C)N1[O] [Tempol, 4-hydroxy-2,2,6,6-tetramethylpiperidine-1-oxyl] was tested. Which HIF-2α levels [1] did it give?
Its HIF-2α levels is “significantly reduced”.

What about the “HIF2 α levels” value [2] of the same compound?
Its value is “reduced HIF2 α levels significantly”.

And the “tumor size when sacrificed at the 80 day time point” value ([3]; 80 days, versus control animals)?
Its value is “smaller tumors”.

What about the “average tumor volume as compared to the control group” value ([3]; SCID/BEIGE mice, up to 100 days) of the same compound?
Its value is “markedly lower average tumor volume”.

And the “tumor size at 100 days” value ([3]; four mice maintained up to 100 days)?
Its value is “quite small”.

And the tumor growth [4]?
Its tumor growth is “reduced by a statistically significant amount”.
